# Publication PMC9033093, “Antiplasmodial Activity of Vachellia xanthophloea (Benth.) P.J.H. Hurter (African Fever Tree) and Its Constituents” (Pharmaceuticals, 2022)
# “And” between values parts separate entries of the source, which are not always exact repeats. Identical values can stand only once. Like-named read-outs stand apart in the source and are kept apart here.
# What was measured:
# [1] = tested on: Plasmodium falciparum 3D7 clone; assay: In vitro antiplasmodial activity, parasite lactate dehydrogenase (pLDH) assay; settings: for viability at 10 µg/mL: 3D7, read-out: Viability % ± SD at 10 μg/mL; for viability at 50 µg/mL: 3D7, read-out: Viability % ± SD at 50 μg/mL
# Description: Malaria parasites (Plasmodium falciparum 3D7 clone) were maintained in an RPMI 1640 medium containing 2 mM L-glutamine and 25 mM Hepes (Lonza). The medium was further supplemented with 5% Albumax II, 20 mM glucose, 0.65 mM hypoxanthine, 60 µg/mL gentamycin, and 2–4% haematocrit human red blood cells. The parasites were cultured at 37 °C under an atmosphere of 5% CO2, 5% O2, and 90% N2 in a sealed T75 culture flask.
# For the antiplasmodial activity, the extracts and isolated compounds were first tested at 50 µg/mL and 10 µg/mL in duplicate experiments. IC50 values determined from the dose-response curves were evaluated for the compounds only showing < 50% viability without cytotoxicity at 10 µg/mL. For the IC50 screening, a range of concentrations of the extracts and compounds starting from 100 µg/mL and extended by 3-fold serial dilution were tested in triplicate and standard deviations (SD) were derived where applicable. The parasite viability was determined by measuring the activity of parasite lactate dehydrogenase (pLDH) as described by Makler et al.. Serial dilutions of the extracts and compounds were added to the in vitro cultures of P. falciparum (3D7 clone) in 96-well plates (1% haematocrit, 2% parasitaemia) and incubated for 48 h. To 125 µL solutions containing a mixture of Malstat (0.18 M lactic acid, 0.13 mM 3-acetylpyridine adenine dinucleotide, 0.16% Triton X-100, and 44 mM Tris, pH 9) and NBT/PES (0.39 mM nitro blue tetrazolium and 0.05 mM phenazine ethosulfate), 20 µL of the incubated culture was then added in a fresh 96-well plate. […] The % parasite viability, as indicated by the pLDH activity in the treated wells compared with the untreated controls, was calculated from the absorbance values for each compound/extract. The parasitised RBCs in the absence of test compounds/drug were taken as the untreated control with 100% viability.
# [2] = In vitro cytotoxicity, resazurin assay; type: cell-based, human; settings: human, 24 h; for viability at 24 h, 10 µg/mL: HeLa cell viability at 10 µg/mL, read-out: Viability % ± SD at 10 μg/mL; for viability at 24 h, 50 µg/mL: HeLa cell viability at 50 µg/mL, read-out: Viability % ± SD at 50 μg/mL
# Description: (§1) The cytotoxicity of the compounds/extracts against HeLa (human cervix adenocarcinoma) cells (Cellonex, South Africa) was evaluated by plating the cells at a density of 2 × 10^4 cells per well in a DMEM medium supplemented with 10% foetal bovine serum and penicillin/streptomycin/amphotericin B antibiotics in 96-well plates. After incubating for 24 h at 37 °C in a humidified 5% CO2 incubator, the test samples were added at a final concentration of 50 µg/mL or 10 µg/mL to the cells in triplicate wells (final volume per well was 200 µL) and further incubated or 24 h. Subsequently, a 20 µL resazurin stock solution (0.6 mM resazurin in phosphate-buffered saline) was added to each well and, after a 4 h incubation, the fluorescence (Exc560/Emm590) was measured on a Spectramax M3 plate reader. The percentage cell viability in the treated wells relative to the wells containing the untreated control cells was calculated from the fluorescence values after subtracting the background readings obtained from the empty wells. Emetine was used as the positive control.
# [3] = tested on: HeLa (human cervix adenocarcinoma) cells; assay: In vitro cytotoxicity, resazurin assay; type: cell-based; settings: for IC50: Homo sapiens, HeLa, positive control
# Description: as §1
# P. falciparum = settings: cited from earlier work
molecule,measurement,setting,value
"COc1c(-c2ccc(O)c(O)c2)oc2cc(O)cc(O)c2c1=O [3-O-Methylquercetin (4), 3-O-methylquercetin]",viability at 10 µg/mL,[1],82.9 ± 3%
same,viability at 50 µg/mL,[1],21.9 ± 1.5%
same,"viability at 24 h, 10 µg/mL",[2]; HeLa cells,57.9 ± 5.2%
same,"viability at 24 h, 50 µg/mL",[2]; HeLa cells,4.5 ± 0.1%
"CCN(CC)CCCC(C)Nc1ccnc2cc(Cl)ccc12 (stereo not shown) [Chloroquine, reference compound]",IC50,"[1]; 3D7, 48 h",14 nM
same,IC50,"[1]; 3D7, read-out: IC50 values ranged",10 to 50 nM
"O=C1c2c(O)cc(O)cc2O[C@H](c2ccc(O)c(O)c2)[C@H]1O [Dihydroquercetin (6), dihydroquercetin]",IC50,"[1]; 3D7, 48 h",27.6 µg/mL and 90.7 µM
"CC[C@H]1CN2CCc3cc(OC)c(OC)cc3[C@@H]2C[C@@H]1C[C@H]1NCCc2cc(OC)c(OC)cc21 [Emetine, reference compound]",IC50,[3]; printed in the 10 µg/mL column,40 nM
same,IC50,[3]; printed in the 50 µg/mL column,33 nM
"O=c1c(O)c(-c2ccc(O)cc2)oc2cc(O)cc(O)c12 [Kaempferol (10), kaempferol]",IC50,"[1]; 3D7, 48 h",25 µg/mL and 87.3 µM
same,antiplasmodial activity of common dietary flavonoids (reported),P. falciparum,moderate to weak antiplasmodial activity
"COC(=O)c1cc(O)c(O)c(O)c1 [Methyl gallate (9), methyl gallate]",IC50,"[1]; 3D7, 48 h",1.2 µg/mL and 6.52 µM
same,viability at 10 µg/mL,[1],26.9 ± 0.7%
same,viability at 50 µg/mL,[1],17.7 ± 1.5%
same,"viability at 24 h, 10 µg/mL",[2],68%
same,"viability at 24 h, 50 µg/mL",[2],2 ± 0.2%
same,Viability % ± SD at 10 μg/mL,"[3]; HeLa cell viability at 10 µg/mL, 24 h",68.6 ± 2.0%
same,antiplasmodial activity and selectivity (reported by other investigators),P. falciparum,good selective antiplasmodial activity
same,combination with quinine,P. falciparum,act in synergy with quinine
O=c1cc(-c2ccc(O)cc2)oc2cc(O)cc(O)c12 [apigenin],antiplasmodial activity of common dietary flavonoids (reported),P. falciparum,moderate to weak antiplasmodial activity
"Oc1cc(O)c2c(c1)O[C@H](c1cc(O)c(O)c(O)c1)[C@@H](O)C2 [gallocatechin (8), gallocatechin]",activity against P. falciparum (previously reported),P. falciparum,inactive
"C[C@]1(O)CC[C@H]2[C@@H]3CCC4=CC(=O)CC[C@@H]4[C@H]3CC[C@@]21C [lutenin, reference compound]",antiplasmodial activity of common dietary flavonoids (reported),P. falciparum,moderate to weak antiplasmodial activity
"O=c1c(O)c(-c2cc(O)c(O)c(O)c2)oc2cc(O)cc(O)c12 [myricetin, reference compound]",antiplasmodial activity of common dietary flavonoids (reported),P. falciparum,moderate to weak antiplasmodial activity
O=c1c(O)c(-c2ccc(O)c(O)c2)oc2cc(O)cc(O)c12 [quercetin],antiplasmodial activity of common dietary flavonoids (reported),P. falciparum,moderate to weak antiplasmodial activity
pinoresinol [Pinoresinol (12)],activity against P. falciparum (previously reported),P. falciparum,inactive
